In ChEMBL document CHEMBL1201862, “PubChem BioAssay data set” (2004):
The source made the active and inactive calls.

Experiments:
[1] = target: Nonstructural protein 1 (Influenza A virus, UniProt Q194T2); type: functional, Influenza A virus (A/California/07/2009(H1N1))
[2] = P. falciparum Dd2 growth inhibitors, dose response, SYBR Green, cherry-picked samples (AID 1159567); type: functional, cell-based
[3] = HEK-293T viability loss after treatment – luminescence, T-cell screen hits, cytotoxicity control for TCR NF-kB inhibitor project, dose response (AID 489026); type: functional, cell-based;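 also: cells exposed to compound about 14 hours before the viability readout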
[4] = DRD fibroblast viability loss – cell-based, non-viral oncogenic, luminescence, dose response (AID 1934); type: functional; conditions: Homo sapiens
[5] = tested on: BJ; experiment: cells; type: functional, cell-based; conditions: Homo sapiens
[6] = NIH-3T3 fibroblast cytotoxicity, dose response, cytotoxicity control, cell-based, fluorescence, Alamar Blue, secondary assay (AID 2327); type: functional;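 also: NIH-3T3 mouse fibroblasts cultured with fluconazole at 8 µg/mL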
[7] = tested on: BJ; experiment: BJ-TERT fibroblast viability loss – cell-based, RAS-independent, luminescence, dose response (AID 1933); type: functional; conditions: Homo sapiens
[8] = fluconazole-exposed Candida albicans growth modulators – fluorescence, retest, confirmation (AID 2467); type: functional, cell-based
[9] = tested on: BJ; experiment: BJ-TERT-LT-ST fibroblast viability loss – cell-based, RAS-independent, luminescence, dose response (AID 1935); type: functional; conditions: Homo sapiens;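 also: BJ fibroblasts immortalized with TERT plus LT and ST oncogenes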
[10] = off-target signal loss in HeLa-CEM21 co-culture – HeLa F-luc CTL cells, cherry-picked, counter-screen for HIV-1 Env fusion inhibitor project, dose response (AID 652040); type: functional, cell-based;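 also: potency for signal decrease marking cytotoxic or nonspecific inhibition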
[11] = blockers of HIV-1 ZM109 envelope-driven cell-cell fusion – HeLa effector, CEM target cells, luciferase, cherry-pick, dose response (AID 652058); type: functional, cell-based;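 also: luciferase signal from HIV-1 Env mediated cell-cell fusion of effector and target cells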
[12] = HIV-1 AD8 envelope cell-cell fusion blockers – cherry-pick, dose response (AID 652062); type: functional, cell-based;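 also: luciferase signal from cell-cell fusion driven by HIV-1 clade B AD8 Env; potency is for inhibitors of fusion seen as a drop in luminescence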
[13] = blockers of HIV-1 envelope-mediated cell-cell fusion – cherry-pick, dose response (AID 652057); type: functional, cell-based
[14] = target: T1, RNA-binding protein pos-1 (Caenorhabditis elegans, UniProt G5EF15); experiment: disruptors of C. elegans POS-1 RNA interaction – biochemical, fluorescence polarization, dose response (AID 1964);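 also: purified POS-1 fused to maltose binding protein made in E. coli; potency of compounds blocking POS-1 binding to fluorescent RNA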
T1 sequence (G5EF15 whole entry): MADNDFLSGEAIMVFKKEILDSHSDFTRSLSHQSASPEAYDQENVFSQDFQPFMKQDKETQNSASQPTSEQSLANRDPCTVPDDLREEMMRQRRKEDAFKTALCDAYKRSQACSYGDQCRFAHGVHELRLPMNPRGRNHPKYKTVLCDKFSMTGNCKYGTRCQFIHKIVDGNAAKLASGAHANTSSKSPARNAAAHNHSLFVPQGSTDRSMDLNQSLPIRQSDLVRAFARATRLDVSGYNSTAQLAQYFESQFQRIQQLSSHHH

[15] = target: T2, Zinc finger protein mex-5 (Caenorhabditis elegans, UniProt Q9XUB2); experiment: potency of MEX-5 RNA-binding blockers – biochemical, C. elegans, fluorescence polarization, dose response (AID 1960)
T2 sequence (Q9XUB2 whole entry): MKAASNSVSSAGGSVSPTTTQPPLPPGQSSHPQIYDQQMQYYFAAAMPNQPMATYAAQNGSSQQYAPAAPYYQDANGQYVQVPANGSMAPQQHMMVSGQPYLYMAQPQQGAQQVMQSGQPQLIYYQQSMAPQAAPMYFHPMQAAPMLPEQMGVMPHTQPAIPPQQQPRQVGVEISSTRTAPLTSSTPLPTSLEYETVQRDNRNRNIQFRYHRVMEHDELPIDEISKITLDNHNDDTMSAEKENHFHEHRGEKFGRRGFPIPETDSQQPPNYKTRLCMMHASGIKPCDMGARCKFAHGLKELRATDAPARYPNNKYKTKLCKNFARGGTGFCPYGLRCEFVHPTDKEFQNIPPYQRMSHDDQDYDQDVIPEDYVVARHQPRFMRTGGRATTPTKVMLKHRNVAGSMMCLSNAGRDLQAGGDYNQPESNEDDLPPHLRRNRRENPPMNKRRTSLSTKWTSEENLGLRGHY

[16] = target: Fatty acid synthase (Homo sapiens, UniProt P49327); experiment: inhibition of human FAS-TE enzyme activity – biochemical, kinetic fluorescence intensity, dose response (AID 624326); type: functional;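 also: rate of fluorescence rise from hydrolysis of a fluorogenic O-methyl fluorescein ester substrate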
Chain of Fatty acid synthase (P49327 whole entry): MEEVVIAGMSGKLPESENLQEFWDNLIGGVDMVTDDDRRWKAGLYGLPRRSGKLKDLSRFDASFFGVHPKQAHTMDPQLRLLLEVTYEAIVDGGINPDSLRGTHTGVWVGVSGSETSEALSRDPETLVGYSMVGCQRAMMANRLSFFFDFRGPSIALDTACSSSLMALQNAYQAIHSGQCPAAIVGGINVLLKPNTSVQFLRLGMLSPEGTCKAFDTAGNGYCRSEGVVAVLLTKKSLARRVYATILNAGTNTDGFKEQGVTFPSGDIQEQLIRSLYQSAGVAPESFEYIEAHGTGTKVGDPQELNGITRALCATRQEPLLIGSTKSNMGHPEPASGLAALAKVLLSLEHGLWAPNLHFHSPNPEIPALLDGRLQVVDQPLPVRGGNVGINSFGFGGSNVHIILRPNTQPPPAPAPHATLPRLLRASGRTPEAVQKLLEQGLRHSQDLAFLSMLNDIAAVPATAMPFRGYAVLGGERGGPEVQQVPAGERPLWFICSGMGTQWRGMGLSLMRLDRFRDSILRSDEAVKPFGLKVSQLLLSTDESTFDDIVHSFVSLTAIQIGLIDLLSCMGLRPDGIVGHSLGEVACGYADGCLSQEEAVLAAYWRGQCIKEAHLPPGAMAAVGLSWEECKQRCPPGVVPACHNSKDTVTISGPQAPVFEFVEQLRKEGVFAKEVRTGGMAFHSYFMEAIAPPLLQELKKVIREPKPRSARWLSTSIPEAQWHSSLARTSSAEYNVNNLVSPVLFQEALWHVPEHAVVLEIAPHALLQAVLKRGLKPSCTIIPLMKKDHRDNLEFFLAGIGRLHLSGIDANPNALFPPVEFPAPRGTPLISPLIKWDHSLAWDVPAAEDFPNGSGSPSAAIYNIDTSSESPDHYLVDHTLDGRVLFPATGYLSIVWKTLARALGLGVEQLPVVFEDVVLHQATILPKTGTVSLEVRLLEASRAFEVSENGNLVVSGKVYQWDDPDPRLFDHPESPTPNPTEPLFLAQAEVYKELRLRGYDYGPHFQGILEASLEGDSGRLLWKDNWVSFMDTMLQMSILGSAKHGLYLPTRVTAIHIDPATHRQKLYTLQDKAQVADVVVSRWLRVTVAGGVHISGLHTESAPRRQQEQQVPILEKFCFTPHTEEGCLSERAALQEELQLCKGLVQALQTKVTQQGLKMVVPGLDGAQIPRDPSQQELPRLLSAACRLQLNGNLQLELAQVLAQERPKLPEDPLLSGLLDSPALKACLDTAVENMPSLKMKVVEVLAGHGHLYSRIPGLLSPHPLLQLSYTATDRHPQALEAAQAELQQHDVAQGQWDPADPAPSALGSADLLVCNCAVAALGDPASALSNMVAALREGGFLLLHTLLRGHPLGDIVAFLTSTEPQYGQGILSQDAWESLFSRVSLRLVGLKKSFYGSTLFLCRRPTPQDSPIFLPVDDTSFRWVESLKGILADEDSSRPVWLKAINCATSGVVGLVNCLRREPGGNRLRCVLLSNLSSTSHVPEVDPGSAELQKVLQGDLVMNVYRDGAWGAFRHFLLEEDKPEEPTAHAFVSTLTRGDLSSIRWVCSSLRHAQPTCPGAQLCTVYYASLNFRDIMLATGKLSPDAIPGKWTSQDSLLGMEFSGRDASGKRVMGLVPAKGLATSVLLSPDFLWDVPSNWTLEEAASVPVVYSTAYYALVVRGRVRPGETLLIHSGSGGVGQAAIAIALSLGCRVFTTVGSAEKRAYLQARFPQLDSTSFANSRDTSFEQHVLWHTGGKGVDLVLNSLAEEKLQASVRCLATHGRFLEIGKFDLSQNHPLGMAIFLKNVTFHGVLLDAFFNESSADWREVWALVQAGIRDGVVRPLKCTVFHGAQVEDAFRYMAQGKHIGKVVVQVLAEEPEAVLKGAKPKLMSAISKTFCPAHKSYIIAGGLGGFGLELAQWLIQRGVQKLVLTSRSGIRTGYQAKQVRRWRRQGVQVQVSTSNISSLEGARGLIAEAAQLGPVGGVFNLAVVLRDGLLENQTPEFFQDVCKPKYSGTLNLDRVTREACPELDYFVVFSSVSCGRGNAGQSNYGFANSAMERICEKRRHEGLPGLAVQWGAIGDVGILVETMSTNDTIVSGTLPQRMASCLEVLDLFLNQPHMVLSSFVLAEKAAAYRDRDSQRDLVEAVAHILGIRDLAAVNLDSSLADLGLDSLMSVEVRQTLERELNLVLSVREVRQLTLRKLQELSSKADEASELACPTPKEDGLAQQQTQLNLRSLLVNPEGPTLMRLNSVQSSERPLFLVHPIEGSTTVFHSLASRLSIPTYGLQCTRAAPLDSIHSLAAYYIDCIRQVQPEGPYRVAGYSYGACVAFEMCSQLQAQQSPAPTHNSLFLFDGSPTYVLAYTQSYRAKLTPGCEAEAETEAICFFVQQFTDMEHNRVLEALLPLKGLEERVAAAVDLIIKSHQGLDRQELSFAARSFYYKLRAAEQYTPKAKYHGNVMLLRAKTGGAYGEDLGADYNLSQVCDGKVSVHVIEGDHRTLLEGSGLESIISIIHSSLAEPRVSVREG

[17] = target: Induced myeloid leukemia cell differentiation protein Mcl-1 (Homo sapiens, UniProt Q07820); type: functional
Chain of Induced myeloid leukemia cell differentiation protein Mcl-1 (Q07820 whole entry): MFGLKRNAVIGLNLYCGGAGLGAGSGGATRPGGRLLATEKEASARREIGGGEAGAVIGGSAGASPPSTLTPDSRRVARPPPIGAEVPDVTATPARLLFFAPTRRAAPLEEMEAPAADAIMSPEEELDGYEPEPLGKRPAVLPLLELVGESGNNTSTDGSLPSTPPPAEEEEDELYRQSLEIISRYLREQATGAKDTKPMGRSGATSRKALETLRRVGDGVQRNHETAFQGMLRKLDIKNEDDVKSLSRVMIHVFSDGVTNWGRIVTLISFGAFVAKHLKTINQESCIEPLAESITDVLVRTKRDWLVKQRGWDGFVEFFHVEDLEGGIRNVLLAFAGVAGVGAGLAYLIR

[18] = target: Cytochrome P450 2C9 (Homo sapiens, UniProt P11712)
Chain of Cytochrome P450 2C9 (P11712 whole entry): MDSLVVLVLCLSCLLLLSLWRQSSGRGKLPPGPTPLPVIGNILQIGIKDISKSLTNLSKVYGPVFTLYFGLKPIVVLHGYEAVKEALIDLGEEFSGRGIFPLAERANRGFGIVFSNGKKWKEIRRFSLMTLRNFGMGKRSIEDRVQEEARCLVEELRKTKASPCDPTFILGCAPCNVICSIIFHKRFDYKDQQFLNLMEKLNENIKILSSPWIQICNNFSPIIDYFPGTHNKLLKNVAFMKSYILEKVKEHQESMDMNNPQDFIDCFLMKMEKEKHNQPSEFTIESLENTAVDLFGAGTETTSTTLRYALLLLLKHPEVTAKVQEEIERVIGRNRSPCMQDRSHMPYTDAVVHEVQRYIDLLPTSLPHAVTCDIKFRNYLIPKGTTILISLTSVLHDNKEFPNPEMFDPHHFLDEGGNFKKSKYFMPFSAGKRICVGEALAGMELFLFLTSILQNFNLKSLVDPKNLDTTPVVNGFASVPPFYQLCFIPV

[19] = target: Cytochrome P450 3A4 (Homo sapiens, UniProt P08684);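 also: CYP3A4 tested as one member of a cytochrome P450 panel screen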
Chain of Cytochrome P450 3A4 (P08684 whole entry): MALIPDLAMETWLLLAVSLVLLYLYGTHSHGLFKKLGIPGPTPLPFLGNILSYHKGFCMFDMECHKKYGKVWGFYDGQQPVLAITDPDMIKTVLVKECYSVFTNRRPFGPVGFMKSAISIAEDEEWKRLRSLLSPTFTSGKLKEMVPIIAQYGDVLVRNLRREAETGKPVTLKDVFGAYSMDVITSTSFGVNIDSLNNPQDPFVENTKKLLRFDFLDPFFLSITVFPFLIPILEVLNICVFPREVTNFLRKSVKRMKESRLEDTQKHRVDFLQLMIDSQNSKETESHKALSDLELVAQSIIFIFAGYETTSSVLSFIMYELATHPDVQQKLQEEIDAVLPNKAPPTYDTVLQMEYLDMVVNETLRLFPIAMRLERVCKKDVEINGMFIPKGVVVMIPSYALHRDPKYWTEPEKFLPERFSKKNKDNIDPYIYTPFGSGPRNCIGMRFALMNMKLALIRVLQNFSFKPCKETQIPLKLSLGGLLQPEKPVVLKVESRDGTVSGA

[20] = target: T3, Protein skinhead-1 (Caenorhabditis elegans, UniProt P34707); type: functional
T3 sequence (P34707 whole entry): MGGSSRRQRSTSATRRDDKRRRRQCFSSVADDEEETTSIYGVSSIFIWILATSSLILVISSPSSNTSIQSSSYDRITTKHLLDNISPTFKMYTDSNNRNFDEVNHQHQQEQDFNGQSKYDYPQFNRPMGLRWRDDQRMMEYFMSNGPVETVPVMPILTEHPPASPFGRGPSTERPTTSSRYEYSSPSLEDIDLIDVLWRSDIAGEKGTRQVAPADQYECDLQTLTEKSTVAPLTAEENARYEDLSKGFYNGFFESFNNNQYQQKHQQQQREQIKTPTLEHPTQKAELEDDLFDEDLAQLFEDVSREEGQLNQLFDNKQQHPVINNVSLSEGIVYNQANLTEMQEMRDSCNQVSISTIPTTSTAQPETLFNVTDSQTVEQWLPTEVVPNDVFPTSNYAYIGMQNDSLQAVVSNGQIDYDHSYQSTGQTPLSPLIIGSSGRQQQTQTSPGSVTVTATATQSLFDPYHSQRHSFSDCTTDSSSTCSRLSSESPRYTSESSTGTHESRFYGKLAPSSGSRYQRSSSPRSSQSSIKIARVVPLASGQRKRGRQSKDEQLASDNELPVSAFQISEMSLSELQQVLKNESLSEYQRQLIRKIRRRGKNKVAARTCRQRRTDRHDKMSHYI

[21] = viability of uninfected HEp-2 cells – cell-based, HTS, cytotoxicity control for RSV inhibitor project, dose response (AID 2410); type: functional; conditions: human respiratory syncytial virus

Chain of Nonstructural protein 1 (Q194T2 whole entry): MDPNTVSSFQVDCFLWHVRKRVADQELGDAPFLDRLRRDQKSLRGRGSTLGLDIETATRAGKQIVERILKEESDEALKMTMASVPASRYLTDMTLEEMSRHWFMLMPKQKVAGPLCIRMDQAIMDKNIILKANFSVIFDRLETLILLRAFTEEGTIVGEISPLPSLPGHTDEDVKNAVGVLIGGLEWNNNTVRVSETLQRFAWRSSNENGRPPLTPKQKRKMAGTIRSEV

With `O=C(NCCCn1ccnc1)C(=O)NCC(c1cccnc1)N1CCN(c2ccc(F)cc2)CC1` (stereo not given) the IC50 [1] was > 100 µM (active).

For `COc1ccccc1CNC(=O)C[C@H]1C[C@@H]2c3cc(NC(=O)Nc4ccc(C(F)(F)F)cc4)ccc3O[C@@H]2[C@H](CO)O1`, the AC50 [2] was 6.78 µM (active).

In the case of `CCOc1ccc2c(c1)OC(c1ccc(C)cc1)(C(F)(F)F)NC2=O` (stereo not given), the IC50 [3] is reported as > 80 µM (inactive), the EC50 [4] is reported as 11.7 µM (inconclusive) and the EC50 [5] is reported as 29.9 µM (inconclusive). For the same molecule, the EC50 [6] was > 160 µM (inconclusive), the EC50 [7] was 4.54 µM (inconclusive) and the EC50 [8] was > 38 µM (not active). For the same molecule, the EC50 [9] was 1.32 µM (inconclusive).

With `CC(=O)c1c(O)cc2c3c1OC(C)(C)C1CCC(C)(CC31)O2` (stereo not given) the AC50 [10] was 13.1 µM (active), the AC50 [11] was 1.07 µM (active) and the AC50 [12] was 9.92 µM (active). The AC50 [13] was 5.16 µM (active).

In the case of `COc1ccc(S(=O)(=O)Nc2cccc(-c3ccc4nncn4n3)c2)cc1F`, the IC50 [3] is reported as > 80 µM (inactive).

In the case of `CC(C)C#Cc1ccc([C@@H]2[C@@H](CO)N3C(=O)CN(C(=O)C4CCCCC4)C[C@@H]23)cc1`, the AC50 [2] is reported as 7.36 µM (active).

In the case of `Cn1cc(/C=N/n2cnc3scc(-c4ccc(Cl)cc4)c3c2=O)c2ccccc21`, the EC50 [14] is reported as > 300 µM (not active), the EC50 [15] is reported as > 300 µM (not active) and the IC50 [3] is reported as > 80 µM (inactive). For the same molecule, the EC50 [4] was 0.85 µM (active), the EC50 [5] was 1.77 µM (active) and the EC50 [7] was 1.07 µM (active). For the same molecule, the EC50 [9] was 1.1 µM (active).

In the case of `O=C(Nc1nc(-c2ccc(S(=O)(=O)N3CCCC3)cc2)cs1)c1ccco1`, the IC50 [16] is reported as 4.05 µM (active).

In the case of `O=C(NCCCCc1ccccc1)C1CC(c2ccccc2[N+](=O)[O-])=NO1` (stereo not given), the IC50 [17] is reported as 7.55 µM (not active), the AC50 [18] is reported as 31.6 µM (inconclusive) and the AC50 [19] is reported as 14.1 µM (inconclusive).

In the case of `O=C(Nc1ccc(N2CCOCC2)cc1)Nc1ccc(Cl)c(Cl)c1`, the IC50 [17] is reported as 19.5 µM (not active).

For `Cn1c(=O)c(C(=O)COC(=O)c2cc(-c3ccco3)nc3ccccc23)c(N)n(Cc2ccccc2)c1=O`, the IC50 [17] was 2.02 µM (active).

For `O=C1CC(=O)c2c1cccc2[N+](=O)[O-]`, the IC50 [17] was 3.52 µM (active).

For `CCN(C[C@H]1N[C@@](CC)(C(=O)OC)[C@H]2C(=O)N(Cc3ccccc3)C(=O)[C@@H]12)C(=O)Nc1ccc(OC)cc1`, the AC50 [10] was 1.23 µM (active), the AC50 [11] was 0.581 µM (active) and the AC50 [12] was 0.993 µM (active). For the same molecule, the AC50 [13] was 0.421 µM (active).

For `COc1ccc(CCNc2oc(-c3cccc4ccccc34)nc2P(=O)(OC)OC)cc1OC`, the AC50 [10] was 10.6 µM (active), the AC50 [11] was 7.26 µM (active) and the AC50 [12] was 1.1 µM (active). The AC50 [13] was 5 µM (active).

In the case of `CCn1c2ccccc2c2cc(NC(=O)CSc3nnc(-c4ccc(OC)c(OC)c4)n3N)ccc21`, the IC50 [20] is reported as > 100 µM (inactive), the CC50 [21] is reported as > 50 µM (active) and the AC50 [18] is reported as 22.4 µM (inconclusive).
